Tests used:
Experiment in all cases: relative viability (nuclei count vs DMSO), 5 days (fraction); higher = more cells survive
[1] = compound: CS(=O)(=O)c1ccc(-c2cnc(N)c(C(=O)Nc3ccccc3)n2)cc1 [VE-821] + N=C(N)NC(=N)NCCc1ccccc1 [Phenformin] (partner 250 µM)
Method in brief: (§1)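 Lung cancer cell lines, seeded in 1536-well plates, were treated the following day by pin tool with a single drug or with five library-drug doses (not always all listed) in √10 steps on top of a fixed anchor-drug dose. Cells were fixed and nuclei stained in one step after 5 days, and nuclei were counted. Relative viability is the nuclei count for treated wells divided by that for vehicle wells, reported as medians of duplicate plates.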

[2] = compound: CS(=O)(=O)c1ccc(C(=O)Nc2ccc(Cl)c(-c3ccccn3)c2)c(Cl)c1 [Vismodegib] + CCNC(=O)c1noc(-c2cc(C(C)C)c(O)cc2O)c1-c1ccc(CN2CCOCC2)cc1 [Luminespib] (partner 0.01 µM)
Method in brief: as §1

[3] = compound: CS(=O)(=O)c1ccc(C(=O)Nc2ccc(Cl)c(-c3ccccn3)c2)c(Cl)c1 [Vismodegib] + C[C@@H](Oc1cc(-c2cnn(C3CCNCC3)c2)cnc1N)c1c(Cl)ccc(F)c1Cl [Crizotinib] (partner 1 µM)
Method in brief: as §1

[4] = compound: N#CC[C@H](C1CCCC1)n1cc(-c2ncnc3[nH]ccc23)cn1 [Ruxolitinib] + CS(=O)(=O)CCNCc1ccc(-c2ccc3ncnc(Nc4ccc(OCc5cccc(F)c5)c(Cl)c4)c3c2)o1 [Lapatinib] (partner 2 µM)
Method in brief: as §1

Row | Cell Line | relative viability ([1]; first compound 0.08 µM) | relative viability ([1]; first compound 0.253 µM) | relative viability ([1]; first compound 0.8 µM) | relative viability ([1]; first compound 2.53 µM) | relative viability ([1]; first compound 8 µM) | relative viability ([2]; first compound 0.08 µM) | relative viability ([2]; first compound 0.253 µM) | relative viability ([2]; first compound 0.8 µM) | relative viability ([2]; first compound 2.53 µM) | relative viability ([2]; first compound 8 µM) | relative viability ([3]; first compound 0.08 µM) | relative viability ([3]; first compound 0.253 µM) | relative viability ([3]; first compound 0.8 µM) | relative viability ([3]; first compound 2.53 µM) | relative viability ([3]; first compound 8 µM) | relative viability ([4]; first compound 0.08 µM) | relative viability ([4]; first compound 0.253 µM) | relative viability ([4]; first compound 0.8 µM) | relative viability ([4]; first compound 2.53 µM) | relative viability ([4]; first compound 8 µM)
1 | LOU-NH91 | 0.742 | 0.701 | 0.693 | 0.706 | 0.734 | 0.28 | 0.334 | 0.352 | 0.366 | 0.301 | 0.726 | 0.76 | 0.704 | 0.747 | 0.728 | 0.786 | 0.666 | 0.844 | 0.764 | 0.865
2 | LU99A | 0.947 | 0.896 | 0.807 | 0.873 | 0.478 | 0.257 | 0.233 | 0.323 | 0.257 | 0.305 | 0.664 | 0.49 | 0.575 | 0.491 | 0.624 | 1.11 | 0.954 | 1.13 | 0.754 | 0.675
3 | LXF-289 | 0.541 | 0.53 | 0.532 | 0.527 | 0.562 | 0.625 | 0.691 | 0.764 | 0.611 | 0.738 | 0.806 | 0.772 | 0.816 | 0.745 | 0.781 | 0.849 | 0.891 | 0.861 | 0.825 | 0.786
4 | NCI-H441 | 1.02 | 0.988 | 1.02 | 1.02 | 0.842 | 0.348 | 0.281 | 0.284 | 0.304 | 0.38 | 0.68 | 0.745 | 0.658 | 0.722 | 0.723 |  |  |  |  | 
5 | NCI-H522 | 0.675 | 0.593 | 0.662 | 0.555 | 0.654 | 1.1 | 1.1 | 0.939 | 1.34 | 1.09 |  |  |  |  |  |  |  |  |  | 
6 | NCI-H1299 |  |  |  |  |  |  |  |  |  |  | 0.918 | 0.929 | 0.96 | 0.96 | 0.947 | 0.937 | 0.963 | 0.957 | 0.915 | 0.718
7 | NCI-H1395 | 0.43 | 0.415 | 0.449 | 0.467 | 0.41 | 0.708 | 0.764 | 0.535 | 0.624 | 0.621 |  |  |  |  |  |  | 0.879 | 1.16 | 0.777 | 0.944
8 | NCI-H1623 | 0.564 | 0.557 | 0.449 | 0.575 | 0.497 | 0.483 | 0.439 | 0.611 | 0.457 | 0.6 |  |  |  |  |  |  |  |  |  | 
9 | NCI-H1703 |  |  |  |  |  |  |  |  |  |  | 0.54 | 0.664 | 0.628 | 0.57 | 0.93 | 0.999 | 1.01 | 1.12 | 0.738 | 0.64
10 | NCI-H1793 | 0.437 | 0.3 | 0.325 | 0.49 | 0.239 |  | 0.214 | 0.189 | 0.482 | 0.19 |  |  |  |  |  | 0.647 | 0.665 | 0.905 | 0.896 | 0.493
11 | NCI-H2342 | 0.756 | 0.663 | 0.548 | 0.508 | 0.475 | 0.588 | 0.728 | 0.748 | 0.79 | 0.71 |  |  |  |  |  |  |  |  |  | 
12 | SW 900 | 0.575 | 0.555 | 0.425 | 0.711 | 0.572 | 0.183 | 0.164 | 0.164 | 0.19 | 0.163 |  |  |  |  |  |  |  |  |  | 

Reference: the supplement of paper PMC10307832
